{
  "source": "patent US9896423B2",
  "about": "“Deuterium substituted 1-[2-(2,4-dimethyl-phenylsulfanyl)-phenyl]piperazine compound or derivatives thereof, and pharmaceutical composition and use thereof” (Jiangsu Jibeier Pharmaceutical Co. Ltd., priority 2014, dated 2018)",
  "key": {"Male ICR mice [1]": {"test_system": "Male ICR mice", "assay": "Mice tail suspension test", "format": "in vivo", "from_the_text": "(§1) The following method is used for testing the antidepression effect of the compound of the present application. ICR mice or SD rats, gavaged for two successive weeks, were subjected to mice swimming test, mice tail suspension test and rats swimming test. See below for details of the tests and results.\nThe animals, medicaments, calculation of dosages to the mice, preparation of drug solution and apparatus are the same as those in the mice swimming test.\nThe medicaments were correspondingly administered by gavage, once a day, to the animals in the groups for 14 successive days, with the amount of 0.2 ml per 10 g of body weight. The mice were subjected to tail suspension one hour later after the last oral administration. The suspension continued for 6 min.\nThe data was given as “average±standard deviation” (x±s). One-way analysis of variance (ANOVA) was used for data difference statistics. Differences among the groups were determined by P<0.05."}, "Male ICR mice [2]": {"test_system": "Male ICR mice", "assay": "Mice swimming test", "format": "in vivo", "from_the_text": "as §1\nMale ICR mice weighing 18 g to 20 g were used. They were fed on sterilized standard feed.\nThe compound administered in the test was 1-{2-[2,4-bis(trideuteriomethyl)phenylsulfanyl]phenyl}piperazine hydrobromic acid salt (XX for short). Vortioxetine (YY for short) was used as a control sample. Venlafaxine HCl (from Wyeth, USA) was used as a positive control.\nVortioxetine (15 mg) was combined with 10% hydroxypropyl-β-cyclodextrin to form a solution of 100 mL and was administered at daily dose of 3 mg/kg. 1-{2-[2,4-bis(trideuteriomethyl)phenylsulfanyl]phenyl}piperazine hydrobromic acid salt (15 mg and 7.5 mg) was combined with 10% hydroxypropyl-β-cyclodextrin to form two solutions of 100 mL and was administered at daily doses of 3 mg/kg and 1.5 mg/kg, respectively. Venlafaxine HCl (75 mg) was combined with 0.5% CMC-Na to form a solution of 100 mL and was administered at daily dose of […].\nA recording and analysis system for small-animal behavior (Noldus) was used.\nAll the eighty mice were subjected to prescreening one day before the administration. The mice, fasted for 4 hours were put in a round glass tank (ø 14 cm×h 20 cm, with water of 10 cm depth and at a temperature of 25° C.) to swim. […] The whole swimming course was recorded by the video and the data were collected and analyzed automatically by Noldus software.\nThe forty qualified mice were divided into 4 groups, each of which had 10 mice, according to the Excel random grouping.\nThe medicaments were administered to each group by gavage with the amount of 0.2 ml per 10 g of body weight, once a day for 14 successive days. One hour later after the last oral administration, the mice were allowed to swim for 6 min. The video recorded the whole swimming course, and the Noldus software automatically collected and analyzed the data.\nThe data was given as “average±standard deviation” (x±s). One-way analysis of variance (one-way ANOVA) was used for data difference statistics. Differences among the groups were determined by P<0.05."}, "[3]": {"assay": "Pharmacokinetic test in rats, intravenous injection", "format": "in vivo, SD rats", "conditions": "2 mg/kg iv; for concentration at 0.05 h / concentration at 0.133 h / concentration at 4 h / concentration at 6 h / concentration at 9 h / concentration at 12 h / concentration at 24 h: male, SD, rat, plasma, intravenous, 2 mg/kg", "experimental": "The preferred compound of the present disclosure was assessed in rats for its pharmacokinetic profile.\nSD rats, male and female, weighing 150 to 250 g\nMobile phase: 10 mM ammonium formate aqueous solution:methanol=15:85\nThe ionization source was electrospray ionization source. The detection mode was positive mode. Multiple reaction monitoring (MRM) was used as the scanning mode. The ion reaction for the quantitative analysis was the following: m/z was 305.2\\150.0 for XX, and 256.1\\167.1 for diphenhydramine (the internal standard).\nFour male SD rats were taken. The dosage was calculated as 5 mL/kg body weight and 2 mg/kg. XX or YY was dissolved in DMSO (3% of a total volume) and castor oil (3% of the total volume) was added to the solution, followed by agitating with a vortex mixer. Subsequently, saline was added to the mixture to the total volume to afford the intravenous injection for the rats. The injections were intravenously administered to four male SD rats. Blood from the rats' orbits was collected 3 min, 8 min, 15 min, 30 min, 1 hr, 2 hr, 3 hr, 4 hr, 6 hr, 9 hr, 12 hr and 24 hr later after the injection, respectively.\nAfter the blood collection, the tubes were immediately gently turned upside down at least five times to ensure sufficient mixing, and placed on ice. Heparin was added for anticoagulation. The samples were centrifuged at 8000 rpm for 5 min to separate serum from erythrocyte. The serum was transferred with a pipettor to 2 mL polypropylene (PP) tubes, which were marked with the name of the compound and the time points, and stored in a refrigerator at −40° C. before LC-MS analysis. Samples with high concentrations were diluted with rat blank plasma.\n2.5 μL of Meth-H2O and 5 μL of the internal standard solution (20 ng/mL, IS) were added to 50 μL of the plasma. Subsequently, 150 μL of methanol was added to the mixture to precipitate protein and the samples were then centrifuged at 13000 rpm for 5 min. The upper organic phase was taken out, filtrated with a 0.22 μM microporous membrane, and 2 μL of the sample was injected for the LC-MS analysis."}, "[4]": {"conditions": "3 mg/kg gavage, two successive weeks"}},
  "note": "Values joined by “and” are separate entries in the source; they are usually repeats but may differ in a detail not shown here. Equal values may be shown once. Read-outs that look alike come from different tables or passages of the source.",
  "data": [
    {"smiles": "Cc1ccc(Sc2ccccc2N2CCNCC2)c(C)c1", "note": "[YY, 1-[2-(2,4-dimethyl-phenylsulfanyl)-phenyl]piperazine]", "values": [
      {"measurement": "effect on length of time that the tail-suspended mice stopped moving vs blank control", "setting": "Male ICR mice [1]; [4]", "value": "did not shorten"},
      {"measurement": "Duration without Move within 6 min", "setting": "Male ICR mice [1]; mice tail suspension, gavage 14 days, 3 mg/kg, n = 10, x ± s", "value": "284.9 ± 51.2", "unit": "s"},
      {"measurement": "effect on length of time that the mice stopped swimming vs blank control", "setting": "Male ICR mice [2]; [4]", "value": "did not shorten"},
      {"measurement": "Duration without Movement within the Last 4 min of the Whole 6 min", "setting": "Male ICR mice [2]; mice, gavage once a day for 14 days, 3 mg/kg, n = 10, x ± s", "value": "199.6 ± 26.1", "unit": "s"},
      {"measurement": "Concentrations in Plasma of Rats after Intravenous Injection", "setting": "[3]; 0.05 h after administration, individual rats", "value": "123.2 ng/mL and 127.2 ng/mL"},
      {"measurement": "Concentrations in Plasma of Rats after Intravenous Injection", "setting": "[3]; 0.133 h, individual rats", "value": "89 ng/mL and 85.9 ng/mL"},
      {"measurement": "Concentrations in Plasma of Rats after Intravenous Injection", "setting": "[3]; 0.25 h, individual rats", "value": "78.8 ng/mL and 77.3 ng/mL"},
      {"measurement": "Concentrations in Plasma of Rats after Intravenous Injection", "setting": "[3]; 0.5 h, individual rats", "value": "76.9 ng/mL and 71.3 ng/mL"},
      {"measurement": "Concentrations in Plasma of Rats after Intravenous Injection", "setting": "[3]; 1 h, individual rats", "value": "73.3 ng/mL and 68.6 ng/mL"},
      {"measurement": "Concentrations in Plasma of Rats after Intravenous Injection", "setting": "[3]; 2 h, individual rats", "value": "69.5 ng/mL and 68.1 ng/mL"},
      {"measurement": "Concentrations in Plasma of Rats after Intravenous Injection", "setting": "[3]; 3 h, individual rats", "value": "53.4 ng/mL and 49.8 ng/mL"},
      {"measurement": "Concentrations in Plasma of Rats after Intravenous Injection", "setting": "[3]; 4 h, individual rats", "value": "38.5 ng/mL and 27.6 ng/mL"},
      {"measurement": "Concentrations in Plasma of Rats after Intravenous Injection", "setting": "[3]; 6 h, individual rats", "value": "28.4 ng/mL and 25.8 ng/mL"},
      {"measurement": "Concentrations in Plasma of Rats after Intravenous Injection", "setting": "[3]; 9 h, individual rats", "value": "16.1 ng/mL and 18.6 ng/mL"},
      {"measurement": "Concentrations in Plasma of Rats after Intravenous Injection", "setting": "[3]; 12 h, individual rats", "value": "7.86 ng/mL and 7.50 ng/mL"},
      {"measurement": "Concentrations in Plasma of Rats after Intravenous Injection", "setting": "[3]; 24 h, individual rats", "value": "2.57 ng/mL and 2.89 ng/mL"},
      {"measurement": "concentration at 0.05 h", "setting": "[3]; 0.05 h, mean, read-out: Concentrations in Plasma of Rats after Intravenous Injection, Mean ± SD", "value": "214 ± 38.9", "unit": "ng/mL"},
      {"measurement": "concentration at 0.05 h", "setting": "[3]; 0.05 h after administration, individual rats, read-out: Concentrations in Plasma of Rats after Intravenous Injection", "value": 134, "unit": "ng/mL"},
      {"measurement": "concentration at 0.133 h", "setting": "[3]; 0.133 h, individual rats, read-out: Concentrations in Plasma of Rats after Intravenous Injection", "value": 86.5, "unit": "ng/mL"},
      {"measurement": "concentration at 0.133 h", "setting": "[3]; 0.133 h, mean, read-out: Concentrations in Plasma of Rats after Intravenous Injection, Mean ± SD", "value": "170 ± 7.8", "unit": "ng/mL"},
      {"measurement": "concentration at 4 h", "setting": "[3]; 4 h, individual rats, read-out: Concentrations in Plasma of Rats after Intravenous Injection", "value": 27.2, "unit": "ng/mL"},
      {"measurement": "concentration at 4 h", "setting": "[3]; 4 h, mean, read-out: Concentrations in Plasma of Rats after Intravenous Injection, Mean ± SD", "value": "40.9 ± 3.4", "unit": "ng/mL"},
      {"measurement": "concentration at 6 h", "setting": "[3]; 6 h, individual rats, read-out: Concentrations in Plasma of Rats after Intravenous Injection", "value": 25.8, "unit": "ng/mL"},
      {"measurement": "concentration at 6 h", "setting": "[3]; 6 h, mean, read-out: Concentrations in Plasma of Rats after Intravenous Injection, Mean ± SD", "value": "33.1 ± 3.43", "unit": "ng/mL"},
      {"measurement": "concentration at 9 h", "setting": "[3]; 9 h, individual rats, read-out: Concentrations in Plasma of Rats after Intravenous Injection", "value": 14.9, "unit": "ng/mL"},
      {"measurement": "concentration at 9 h", "setting": "[3]; 9 h, mean, read-out: Concentrations in Plasma of Rats after Intravenous Injection, Mean ± SD", "value": "19.5 ± 1.49", "unit": "ng/mL"},
      {"measurement": "concentration at 12 h", "setting": "[3]; 12 h, individual rats, read-out: Concentrations in Plasma of Rats after Intravenous Injection", "value": 8.44, "unit": "ng/mL"},
      {"measurement": "concentration at 12 h", "setting": "[3]; 12 h, mean, read-out: Concentrations in Plasma of Rats after Intravenous Injection, Mean ± SD", "value": "7.85 ± 0.62", "unit": "ng/mL"},
      {"measurement": "concentration at 24 h", "setting": "[3]; 24 h, individual rats, read-out: Concentrations in Plasma of Rats after Intravenous Injection", "value": 3.38, "unit": "ng/mL"},
      {"measurement": "concentration at 24 h", "setting": "[3]; 24 h, mean, read-out: Concentrations in Plasma of Rats after Intravenous Injection, Mean ± SD", "value": "4.07 ± 0.05", "unit": "ng/mL"}
    ]}
  ]
}
